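Assay format: 96-well plates, 48-hour exposure. The concentration for 50% growth inhibition is given as GI50. TGI marks complete inhibition of growth.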

Test systems include SW-620 colon; SK-MEL-5 melanoma; 786-0 renal; M14 melanoma; TK-10 renal; ACHN renal; HOP-62 NSCLC; CAKI-1 renal; UO-31 renal; IGROV1 ovarian.
What all share (assay): NCI tumour cell line growth inhibition, 48 h

Consider `CC(C)[O-].CC(C)[O-].O=c1cccccc1[O-].O=c1cccccc1[O-].[Ti+4]`, for which the TGI in the assay on SW-620 colon was over 100 µM; in the assay on SK-MEL-5 melanoma it was 69.8 µM; in the assay with 786-0 renal, 69.9 µM; with M14 melanoma it was over 100 µM; in the assay on TK-10 renal, over 100 µM; with ACHN renal it was over 100 µM. Moreover, the TGI in the assay with HOP-62 NSCLC, in the assay on CAKI-1 renal, with UO-31 renal and in the assay on IGROV1 ovarian was over 100 µM each time. The GI50 in the assay with HOP-62 NSCLC is over 100 µM.
For the compound `c1ccc2[nH]c(CNc3ccc(C4C[Se]N=N4)cc3)nc2c1` (stereo not given), the TGI in the assay with SW-620 colon was over 100 µM; in the assay with SK-MEL-5 melanoma, 46.4 µM; in the assay with 786-0 renal it was over 100 µM; in the assay on M14 melanoma, over 100 µM; with TK-10 renal, over 100 µM; in the assay with ACHN renal, over 100 µM. Besides, the TGI in the assay with HOP-62 NSCLC, with CAKI-1 renal, with UO-31 renal and with IGROV1 ovarian was over 100 µM throughout.
Take `O=c1[nH]c2cc([N+](=O)[O-])ccc2nc1/C(=N\Nc1ccccc1)C(O)c1ccc2c(c1)OCO2` (stereo not given): the TGI with SW-620 colon, with SK-MEL-5 melanoma, in the assay with 786-0 renal, in the assay with M14 melanoma, in the assay with TK-10 renal and in the assay with ACHN renal was over 100 µM throughout. For the same compound, the TGI in the assay on HOP-62 NSCLC, with UO-31 renal and with IGROV1 ovarian was over 100 µM throughout.
As for `CCOC(OC1=C(C#N)CCCC1)C(CC)[Se]c1ccccc1` (stereo not given), the TGI in the assay on SK-MEL-5 melanoma is 33.5 µM; in the assay with 786-0 renal, 31.6 µM; in the assay with M14 melanoma, over 100 µM; with TK-10 renal, over 100 µM; in the assay with ACHN renal it was 95.5 µM; in the assay with HOP-62 NSCLC, over 100 µM. In addition, the TGI in the assay on CAKI-1 renal was over 100 µM; in the assay on UO-31 renal, over 100 µM; in the assay with IGROV1 ovarian, 74.1 µM.
Consider `COc1ccc(C(=O)c2nc3ccccc3n2CC(=O)c2ccc(Cl)cc2)cc1`, for which the GI50 in the assay with SW-620 colon was 1.29 µM; in the assay on SK-MEL-5 melanoma, 2.55 µM; with 786-0 renal, 3.88 µM; in the assay with M14 melanoma, 2.27 µM; in the assay on TK-10 renal it was 4.02 µM; in the assay on ACHN renal it was 6.4 µM. Moreover, the GI50 with HOP-62 NSCLC was 4.78 µM; in the assay with CAKI-1 renal, 53.6 µM; with UO-31 renal, 7.04 µM; in the assay with IGROV1 ovarian, 6.09 µM. For the same compound, the TGI with SW-620 colon is over 100 µM; with SK-MEL-5 melanoma, 12.9 µM; in the assay with 786-0 renal it was over 100 µM; in the assay on M14 melanoma it was over 100 µM; in the assay with TK-10 renal it was over 100 µM; in the assay on ACHN renal, over 100 µM. In addition, the TGI in the assay with HOP-62 NSCLC, in the assay with CAKI-1 renal, with UO-31 renal and in the assay with IGROV1 ovarian was over 100 µM throughout.
For the compound `COC(=O)c1ccc2c(c1)C(=O)c1c-2n(CCCN=[N+]=[N-])c(=O)c2cc([N+](=O)[O-])ccc12`, the GI50 in the assay with SW-620 colon was over 100 µM; in the assay on SK-MEL-5 melanoma, over 100 µM; in the assay with 786-0 renal, 25.1 µM; in the assay with M14 melanoma it was over 100 µM; with TK-10 renal, 29.6 µM; in the assay with ACHN renal, 13 µM. In addition, the GI50 with HOP-62 NSCLC was 25.8 µM; with CAKI-1 renal, over 100 µM; in the assay with UO-31 renal it was over 100 µM; with IGROV1 ovarian it was 21 µM. In addition, the TGI in the assay on SW-620 colon is over 100 µM; with SK-MEL-5 melanoma, over 100 µM; with 786-0 renal, 79 µM; in the assay with M14 melanoma, over 100 µM; in the assay on TK-10 renal, 68.6 µM; in the assay with ACHN renal it was 28.7 µM. In addition, the TGI with HOP-62 NSCLC is 67.5 µM; with CAKI-1 renal it was over 100 µM; in the assay with UO-31 renal it was over 100 µM; in the assay with IGROV1 ovarian, over 100 µM.
In the case of `C/C1=C\CC[C@@](C)(O)[C@@H]2C[C@H](CC/C(C)=C/CC1)C1(CC1)C(=O)O2`, the GI50 with SW-620 colon was 27.1 µM; in the assay on SK-MEL-5 melanoma, 17.4 µM; in the assay with 786-0 renal it was 44.6 µM; in the assay with M14 melanoma, 32.7 µM; in the assay with TK-10 renal, 29.6 µM; in the assay with ACHN renal it was 34.4 µM. The GI50 in the assay on HOP-62 NSCLC was 45.1 µM; in the assay with CAKI-1 renal it was 22.2 µM; with UO-31 renal, 46.5 µM; in the assay on IGROV1 ovarian, 28.1 µM. Further, the TGI is 73.1 µM in the assay with SW-620 colon; 35 µM with SK-MEL-5 melanoma; over 100 µM with 786-0 renal; 91.6 µM in the assay on M14 melanoma; 96.5 µM in the assay with TK-10 renal; over 100 µM with ACHN renal. The TGI was over 100 µM in the assay with HOP-62 NSCLC, 50.2 µM with CAKI-1 renal, over 100 µM in the assay with UO-31 renal and over 100 µM in the assay with IGROV1 ovarian.
As for `N#Cc1c(-c2ccco2)cc(-c2ccccc2)[nH]c1=O`, the TGI in the assay with SW-620 colon, in the assay on SK-MEL-5 melanoma, with 786-0 renal, in the assay with M14 melanoma, in the assay on TK-10 renal and in the assay on ACHN renal was over 100 µM throughout. Moreover, the TGI with HOP-62 NSCLC, in the assay on UO-31 renal and in the assay on IGROV1 ovarian was over 100 µM throughout.
For the compound `N#C/C(=C1\SC(N=Nc2ccc(Cl)cc2)C(=O)N1c1ccccc1)c1nc2ccccc2[nH]1` (stereo not given), the TGI is over 100 µM in the assay with SW-620 colon; over 100 µM in the assay on SK-MEL-5 melanoma; 26.8 µM with 786-0 renal; over 100 µM in the assay on M14 melanoma; 61.6 µM in the assay with TK-10 renal; over 100 µM with ACHN renal. Also, the values for the TGI in the assay on HOP-62 NSCLC, with CAKI-1 renal and with UO-31 renal were 35.4 µM, over 100 µM and 40 µM, respectively.
With `CC(C)(C)OC(=O)NC1CCCC1=O` (stereo not given), the TGI in the assay with SW-620 colon, with SK-MEL-5 melanoma, with 786-0 renal, in the assay on M14 melanoma, in the assay on TK-10 renal and in the assay with ACHN renal was over 100 µM in each case. The TGI with HOP-62 NSCLC, in the assay with CAKI-1 renal and in the assay on UO-31 renal was over 100 µM in each case.
Take `COc1ccc2[nH]c(-c3ccc(O)cc3)cc(=O)c2c1`: the TGI in the assay on SW-620 colon was over 100 µM; in the assay with SK-MEL-5 melanoma, 5.43 µM; in the assay with 786-0 renal it was over 58.1 µM; in the assay on M14 melanoma, 82.1 µM; in the assay on TK-10 renal, over 89.7 µM; with ACHN renal, over 100 µM. The results for the TGI in the assay with HOP-62 NSCLC, with UO-31 renal and with IGROV1 ovarian were over 58.8 µM, 98.2 µM and over 62.8 µM, respectively.

Source of the values: PubChem BioAssay (NCI).
